# Molecular target: wild-type human cardiac sodium channel, hNav1.5 (Homo sapiens, UniProt Q14524)
# Experiment: Late INa screening assay (QPatch whole cell patch clamp, HEK293)
# Format: cell-based
# Conditions: HEK293, percent block of late INa; compound at 1 μM; 10 μM Tefluthrin; read-out: Late INa 1 μM
# How it was run: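 HEK293 stably expressing hNav1.5 without beta subunits, recorded at 23-25° C. Late current was induced by 10 μM tefluthrin. Cells were depolarized from −120 mV to −20 mV for 250 ms at 0.1 Hz. Compounds were tested at 1 μM in extracellular solution, with baseline taken in 0Na-ECF; output is percent block of late INa.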
# Chain of wild-type human cardiac sodium channel, hNav1.5 (Q14524 whole entry): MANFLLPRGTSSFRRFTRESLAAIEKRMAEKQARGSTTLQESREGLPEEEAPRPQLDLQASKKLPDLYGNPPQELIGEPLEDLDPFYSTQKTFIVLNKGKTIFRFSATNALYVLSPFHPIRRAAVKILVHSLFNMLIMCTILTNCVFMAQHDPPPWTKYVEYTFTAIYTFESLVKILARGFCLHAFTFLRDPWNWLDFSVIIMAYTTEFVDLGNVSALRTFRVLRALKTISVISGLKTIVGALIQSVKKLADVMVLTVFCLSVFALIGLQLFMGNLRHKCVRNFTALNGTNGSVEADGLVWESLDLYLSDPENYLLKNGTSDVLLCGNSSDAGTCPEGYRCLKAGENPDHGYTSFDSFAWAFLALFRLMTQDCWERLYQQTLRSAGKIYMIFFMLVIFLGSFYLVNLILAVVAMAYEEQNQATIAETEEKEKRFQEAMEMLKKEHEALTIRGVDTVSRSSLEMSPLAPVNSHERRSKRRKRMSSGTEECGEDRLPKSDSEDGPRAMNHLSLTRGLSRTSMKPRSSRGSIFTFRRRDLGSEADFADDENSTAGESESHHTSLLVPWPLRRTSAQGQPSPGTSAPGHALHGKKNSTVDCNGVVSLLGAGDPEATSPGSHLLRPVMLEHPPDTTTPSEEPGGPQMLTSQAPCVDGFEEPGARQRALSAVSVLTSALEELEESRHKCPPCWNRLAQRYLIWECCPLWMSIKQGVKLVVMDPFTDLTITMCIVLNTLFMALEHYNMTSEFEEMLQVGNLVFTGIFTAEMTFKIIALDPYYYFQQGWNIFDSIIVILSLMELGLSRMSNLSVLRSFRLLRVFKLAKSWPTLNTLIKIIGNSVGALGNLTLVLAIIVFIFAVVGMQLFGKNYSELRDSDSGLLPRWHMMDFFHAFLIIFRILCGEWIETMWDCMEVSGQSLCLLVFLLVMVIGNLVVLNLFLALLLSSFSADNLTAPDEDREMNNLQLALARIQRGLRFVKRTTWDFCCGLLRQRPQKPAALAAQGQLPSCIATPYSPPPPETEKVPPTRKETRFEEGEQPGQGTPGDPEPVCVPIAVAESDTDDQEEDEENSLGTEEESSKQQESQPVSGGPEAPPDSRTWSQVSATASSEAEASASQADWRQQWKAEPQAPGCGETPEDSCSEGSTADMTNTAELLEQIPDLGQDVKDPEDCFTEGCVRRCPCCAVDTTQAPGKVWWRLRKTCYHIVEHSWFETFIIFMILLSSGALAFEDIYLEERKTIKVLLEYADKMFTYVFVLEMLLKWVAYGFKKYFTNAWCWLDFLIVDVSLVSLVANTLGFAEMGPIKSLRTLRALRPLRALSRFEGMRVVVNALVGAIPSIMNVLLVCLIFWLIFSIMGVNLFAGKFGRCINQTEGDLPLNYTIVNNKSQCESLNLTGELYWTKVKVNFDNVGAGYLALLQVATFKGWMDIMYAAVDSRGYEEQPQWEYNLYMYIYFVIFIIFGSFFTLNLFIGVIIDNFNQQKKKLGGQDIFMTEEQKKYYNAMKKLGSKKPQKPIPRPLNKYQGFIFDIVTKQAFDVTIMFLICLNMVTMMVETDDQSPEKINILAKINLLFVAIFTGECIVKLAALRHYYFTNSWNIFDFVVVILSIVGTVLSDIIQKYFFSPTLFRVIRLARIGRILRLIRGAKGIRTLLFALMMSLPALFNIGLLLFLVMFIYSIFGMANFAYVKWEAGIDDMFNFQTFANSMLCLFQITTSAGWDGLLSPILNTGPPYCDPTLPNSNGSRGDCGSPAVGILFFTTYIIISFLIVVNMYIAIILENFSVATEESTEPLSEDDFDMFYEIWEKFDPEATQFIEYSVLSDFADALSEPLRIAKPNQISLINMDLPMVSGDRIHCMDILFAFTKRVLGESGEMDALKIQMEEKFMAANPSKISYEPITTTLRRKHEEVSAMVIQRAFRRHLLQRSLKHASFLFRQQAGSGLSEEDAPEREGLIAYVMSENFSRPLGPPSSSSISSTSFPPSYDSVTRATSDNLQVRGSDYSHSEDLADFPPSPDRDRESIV
smiles,measurement,value
"O=C1c2cc(-c3ccc(OC(F)(F)F)cc3)ccc2OCCN1CCNS(=O)(=O)c1ccccc1 [II-177, N-(2-(5-oxo-7-(4-(trifluoromethoxy)phenyl)-2,3-dihydrobenzo[f][1,4]oxazepin-4(5H)-yl)ethyl)benzenesulfonamide]",inhibition at 1 µM,22%
"CCS(=O)(=O)NCCN1CCOc2ccc(-c3ccc(OC(F)(F)F)cc3)cc2C1=O [II-178, N-(2-(5-oxo-7-(4-(trifluoromethoxy)phenyl)-2,3-dihydrobenzo[f][1,4]oxazepin-4(5H)-yl)ethyl)ethanesulfonamide]",inhibition at 1 µM,19%
"O=C1c2cc(-c3ccc(OC(F)(F)F)cc3)ccc2OCCN1CCNS(=O)(=O)C1CC1 [II-179, N-(2-(5-oxo-7-(4-(trifluoromethoxy)phenyl)-2,3-dihydrobenzo[f][1,4]oxazepin-4(5H)-yl)ethyl)cyclopropanesulfonamide]",inhibition at 1 µM,21%
"O=C1c2cc(-c3ccc(OC(F)(F)F)cc3)ccc2OCCN1CCCS(=O)(=O)NC1CC1 [II-190, N-cyclopropyl-3-(5-oxo-7-(4-(trifluoromethoxy)phenyl)-2,3-dihydrobenzo[f][1,4]oxazepin-4(5H)-yl)propane-1-sulfonamide]",inhibition at 1 µM,18%
"O=C1c2cc(-c3ccc(OC(F)(F)F)cc3)ccc2OCCN1CCCS(=O)(=O)N1CCC1 [II-191, 4-(3-(azetidin-1-ylsulfonyl)propyl)-7-(4-(trifluoromethoxy)phenyl)-3,4-dihydrobenzo[f][1,4]oxazepin-5(2H)-one]",inhibition at 1 µM,25%
"O=C(NCCN1CCOc2ccc(-c3ccc(OC(F)(F)F)cc3)cc2C1=O)c1ncccn1 [II-192, N-(2-(5-oxo-7-(4-(trifluoromethoxy)phenyl)-2,3-dihydrobenzo[f][1,4]oxazepin-4(5H)-yl)ethyl)pyrimidine-2-carboxamide]",inhibition at 1 µM,15%
"O=C1c2cc(-c3ccc(Oc4ccc(F)cc4)cc3)ccc2OCCN1Cc1ncccn1 [II-193, 7-(4-(4-fluorophenoxy)phenyl)-4-(pyrimidin-2-ylmethyl)-3,4-dihydrobenzo[f][1,4]oxazepin-5(2H)-one]",inhibition at 1 µM,70%
"O=C1c2cc(-c3ccc(Oc4ccccc4)cc3)ccc2OCCN1Cc1ncccn1 [II-194, 7-(4-phenoxyphenyl)-4-(pyrimidin-2-ylmethyl)-3,4-dihydrobenzo[f][1,4]oxazepin-5(2H)-one]",inhibition at 1 µM,63%
"O=C1c2cc(-c3cccc(Oc4ccccc4)c3)ccc2OCCN1Cc1ncccn1 [II-195, 7-(3-phenoxyphenyl)-4-(pyrimidin-2-ylmethyl)-3,4-dihydrobenzo[f][1,4]oxazepin-5(2H)-one]",inhibition at 1 µM,66%
"O=C(c1ccccc1)N1CCOc2ccc(-c3ccc(OC(F)(F)F)cc3)cc2C1 [III-4, phenyl(7-(4-(trifluoromethoxy)phenyl)-2,3-dihydrobenzo[f][1,4]oxazepin-4(5H)-yl)methanone]",inhibition at 1 µM,35%
"CC1(C(=O)N2CCOc3ccc(-c4ccc(OC(F)(F)F)cc4)cc3C2)CC1 [III-10, (1-methylcyclopropyl)(7-(4-(trifluoromethoxy)phenyl)-2,3-dihydrobenzo[f][1,4]oxazepin-4(5H)-yl)methanone]",inhibition at 1 µM,29%
"O=C(C1CC(F)(F)C1)N1CCOc2ccc(-c3ccc(OC(F)(F)F)cc3)cc2C1 [III-11, (3,3-difluorocyclobutyl)(7-(4-(trifluoromethoxy)phenyl)-2,3-dihydrobenzo[f][1,4]oxazepin-4(5H)-yl)methanone]",inhibition at 1 µM,20%
"O=C(c1cnccn1)N1CCOc2ccc(-c3ccc(OC(F)(F)F)cc3)cc2C1 [III-23, pyrazin-2-yl(7-(4-(trifluoromethoxy)phenyl)-2,3-dihydrobenzo[f][1,4]oxazepin-4(5H)-yl)methanone]",inhibition at 1 µM,26%
"O=C(c1cccnn1)N1CCOc2ccc(-c3ccc(OC(F)(F)F)cc3)cc2C1 [III-24, pyridazin-3-yl(7-(4-(trifluoromethoxy)phenyl)-2,3-dihydrobenzo[f][1,4]oxazepin-4(5H)-yl)methanone]",inhibition at 1 µM,17%
"O=C(Cc1ncccn1)N1CCOc2ccc(-c3ccc(C(F)(F)F)cc3)cc2C1 [III-30, 2-(pyrimidin-2-yl)-1-(7-(4-(trifluoromethyl)phenyl)-2,3-dihydrobenzo[f][1,4]oxazepin-4(5H)-yl)ethanone]",inhibition at 1 µM,16%
"Cn1cncc1C(=O)N1CCOc2ccc(-c3ccc(C(F)(F)F)cc3)cc2C1 [III-32, (1-methyl-1H-imidazol-5-yl)(7-(4-(trifluoromethyl)phenyl)-2,3-dihydrobenzo[f][1,4]oxazepin-4(5H)-yl)methanone]",inhibition at 1 µM,22%
"O=C(c1ncc[nH]1)N1CCOc2ccc(-c3ccc(C(F)(F)F)cc3)cc2C1 [III-33, (1H-imidazol-2-yl)(7-(4-(trifluoromethyl)phenyl)-2,3-dihydrobenzo[f][1,4]oxazepin-4(5H)-yl)methanone]",inhibition at 1 µM,37%
"Cn1ccnc1C(=O)N1CCOc2ccc(-c3ccc(C(F)(F)F)cc3)cc2C1 [III-37, (1-methyl-1H-imidazol-2-yl)(7-(4-(trifluoromethyl)phenyl)-2,3-dihydrobenzo[f][1,4]oxazepin-4(5H)-yl)methanone]",inhibition at 1 µM,41%
"C[C@@H]1CN(C(=O)c2ncccn2)Cc2cc(-c3ccc(OC(F)(F)F)cc3)ccc2O1 [III-38, (R)-(2-methyl-7-(4-(trifluoromethoxy)phenyl)-2,3-dihydrobenzo[f][1,4]oxazepin-4(5H)-yl)(pyrimidin-2-yl)methanone]",inhibition at 1 µM,28%
"CC(C)(C)OC(=O)N1CCn2cc(C(=O)N3CCOc4ccc(-c5ccc(C(F)(F)F)cc5)cc4C3)nc2C1 [III-40, tert-butyl 2-(7-(4-(trifluoromethyl)phenyl)-2,3,4,5-tetrahydrobenzo[f][1,4]oxazepine-4-carbonyl)-5,6-dihydroimidazo[1,2-a]pyrazine-7(8H)-carboxylate]",inhibition at 1 µM,22%
"O=C(c1nc[nH]n1)N1CCOc2ccc(-c3ccc(C(F)(F)F)cc3)cc2C1 [III-50, (1H-1,2,4-triazol-3-yl)(7-(4-(trifluoromethyl)phenyl)-2,3-dihydrobenzo[f][1,4]oxazepin-4(5H)-yl)methanone]",inhibition at 1 µM,24%
"Cc1cc(C(=O)N2CCOc3ccc(-c4ccc(OC(F)(F)F)cc4)cc3C2)nn1C [III-58, (1,5-dimethyl-1H-pyrazol-3-yl)(7-(4-(trifluoromethoxy)phenyl)-2,3-dihydrobenzo[f][1,4]oxazepin-4(5H)-yl)methanone]",inhibition at 1 µM,26%
"O=C1c2ccc(-c3cccc(C(F)(F)F)c3)cc2OCCN1Cc1ncccn1 [IV-4, 4-(pyrimidin-2-ylmethyl)-8-(3-(trifluoromethyl)phenyl)-3,4-dihydrobenzo[f][1,4]oxazepin-5(2H)-one]",inhibition at 1 µM,14%
"O=S1(=O)c2cc(-c3ccc(C(F)(F)F)cc3)ccc2OCCN1Cc1ncccn1 [IX-2, 2-((pyrimidin-2-yl)methyl)-8-(4-(trifluoromethyl)phenyl)-3,4-dihydro-2H-benzo[b][1,4,5]oxathiazepin-sulfone]",inhibition at 1 µM,22%
"CC(C)(C)Oc1cc(-c2ccc3c(c2)C(=O)N(Cc2ccccn2)CCO3)ccn1 [VI-4, 7-(2-tert-butoxypyridin-4-yl)-4-(pyridin-2-ylmethyl)-3,4-dihydrobenzo[f][1,4]oxazepin-5(2H)-one]",inhibition at 1 µM,36%
"O=C1c2cc(-c3cnc(N4CCCCC4)nc3)ccc2OCCN1Cc1ncccn1 [VI-11, 7-(2-(piperidin-1-yl)pyrimidin-5-yl)-4-(pyrimidin-2-ylmethyl)-3,4-dihydrobenzo[f][1,4]oxazepin-5(2H)-one]",inhibition at 1 µM,19%
"O=C1c2cc(-c3ccc(C(F)(F)F)cn3)ccc2OCCN1Cc1ccccn1 [VI-26, 4-(pyridin-2-ylmethyl)-7-(5-(trifluoromethyl)pyridin-2-yl)-3,4-dihydrobenzo[f][1,4]oxazepin-5(2H)-one]",inhibition at 1 µM,28%
"CC(C)c1nc(-c2ccc3c(c2)C(=O)N(Cc2ccccn2)CCO3)cs1 [VI-30, 7-(2-isopropylthiazol-4-yl)-4-(pyridin-2-ylmethyl)-3,4-dihydrobenzo[f][1,4]oxazepin-5(2H)-one]",inhibition at 1 µM,40%
"O=C1c2cc(-c3ccc(C4CC4)s3)ccc2OCCN1Cc1ncccn1 [VI-36, 7-(5-cyclopropylthiophen-2-yl)-4-(pyrimidin-2-ylmethyl)-3,4-dihydrobenzo[f][1,4]oxazepin-5(2H)-one]",inhibition at 1 µM,47%
"O=C1c2cc(-c3ccc(C(F)(F)F)s3)ccc2OCCN1Cc1ncccn1 [VI-37, 4-(pyrimidin-2-ylmethyl)-7-(5-(trifluoromethyl)thiophen-2-yl)-3,4-dihydrobenzo[f][1,4]oxazepin-5(2H)-one]",inhibition at 1 µM,48%
"O=C1c2cc(C#Cc3ccccc3)ccc2OCCN1Cc1ncccn1 [VIII-5, 7-(phenylethynyl)-4-(pyrimidin-2-ylmethyl)-3,4-dihydrobenzo[f][1,4]oxazepin-5(2H)-one]",inhibition at 1 µM,32%
"O=C1c2cc(CCc3ccc(C(F)(F)F)cc3)ccc2OCCN1Cc1ccccn1 [VIII-7, 4-(pyridin-2-ylmethyl)-7-(4-(trifluoromethyl)phenethyl)-3,4-dihydrobenzo[f][1,4]oxazepin-5(2H)-one]",inhibition at 1 µM,59%
"O=C1c2cc(CCc3ccc(C(F)(F)F)cc3)ccc2OCCN1Cc1ncccn1 [VIII-8, 4-(pyrimidin-2-ylmethyl)-7-(4-(trifluoromethyl)phenethyl)-3,4-dihydrobenzo[f][1,4]oxazepin-5(2H)-one]",inhibition at 1 µM,47%
"O=C1c2cc(CCc3ccc(C(F)(F)F)cc3)ccc2OCCN1Cc1ncccc1F [VIII-9, 4-((3-fluoropyridin-2-yl)methyl)-7-(4-(trifluoromethyl)phenethyl)-3,4-dihydrobenzo[f][1,4]oxazepin-5(2H)-one]",inhibition at 1 µM,50%
"O=C1c2cc(/C=C/c3ccc(C(F)(F)F)cc3)ccc2OCCN1Cc1ccccc1 [VIII-10, (E)-4-benzyl-7-(4-(trifluoromethyl)styryl)-3,4-dihydrobenzo[f][1,4]oxazepin-5(2H)-one]",inhibition at 1 µM,25%

# — patent publication US9676760B2, “Fused heterocyclic compounds as ion channel modulators” (Gilead Sciences, Inc., priority 2011, dated 2017)
